Tested on: adults with idiopathic or diabetic gastroparesis
Experiment: Safety: adverse events, laboratory values, vital signs, Phase 2a
[1] = 5 mg BID (N = 9), Safety Population

Protocol: Safety was evaluated through assessments of Aes, vital signs, physical examinations, clinical laboratory evaluations (including prolactin), and ECG findings. Additionally, a single, optional PGx blood sample may have been collected at any time during the subject's participation in the study.
Safety variables included Aes, clinical laboratory results (including prolactin), vital signs, ECGs, and physical examination findings.

[2H]c1c([2H])c([2H])c2c([nH]c(=O)n2CCCN2CCC(n3c(=O)[nH]c4cc(Cl)ccc43)CC2)c1[2H] [Deudomperidone, 1-{3-[4-(5-chloro-2-oxo-2,3-dihydro-1H-1,3-benzodiazol-1-yl)piperidin-1yl]propyl}-2,3-dihydro(4,5,6,7-D4)-1H-1,3-benzodiazol-2-one]
TEAEs reported (5 mg BID): 1 TEAE
other TEAE: abdominal pain lower (5 mg BID): 1 subject each
other study drug-related TEAE: abdominal pain lower (5 mg BID): 1 subject each
study drug-related TEAEs reported (5 mg BID): 1 TEAE
subjects with study drug-related TEAEs (5 mg BID): 1 (11.1%) subjects (%)
Study drug-related TEAE Abdominal pain lower, % (5 mg BID (N = 9)): (11.1) %
Study drug-related TEAE Blood creatine phosphokinase increased, % (5 mg BID (N = 9)): (0.0) %
Study drug-related TEAE Cardiac disorders, % (5 mg BID (N = 9)): (0.0) %
Study drug-related TEAE Diarrhoea, % (5 mg BID (N = 9)): (0.0) %
Study drug-related TEAE Ear and labyrinth disorders, % (5 mg BID (N = 9)): (0.0) %
Study drug-related TEAE Electrocardiogram QT prolonged, % (5 mg BID (N = 9)): (0.0) %
Study drug-related TEAE Gastrointestinal disorders, % (5 mg BID (N = 9)): (11.1) %
Study drug-related TEAE Headache, % (5 mg BID (N = 9)): (0.0) %
Study drug-related TEAE Investigations, % (5 mg BID (N = 9)): (0.0) %
Study drug-related TEAE Nausea, % (5 mg BID (N = 9)): (0.0) %
Study drug-related TEAE Nervous system disorders, % (5 mg BID (N = 9)): (0.0) %
Study drug-related TEAE Palpitations, % (5 mg BID (N = 9)): (0.0) %
Study drug-related TEAE Tinnitus, % (5 mg BID (N = 9)): (0.0) %
Subjects with any TEAEs, % (5 mg BID (N = 9)): 11.1%
Subjects with any TEAEs, e (events) (5 mg BID (N = 9)): 1
Subjects with any study drug-related TEAE, % (5 mg BID (N = 9)): 11.1%
Subjects with any study drug-related TEAE, e (events) (5 mg BID (N = 9)): 1
TEAE Abdominal pain lower, % (5 mg BID (N = 9)): (11.1) %
TEAE Arthralgia, % (5 mg BID (N = 9)): (0.0) %
TEAE Back pain, % (5 mg BID (N = 9)): (0.0) %
TEAE Blood creatine phosphokinase increased, % (5 mg BID (N = 9)): (0.0) %
TEAE Cardiac disorders, % (5 mg BID (N = 9)): (0.0) %
TEAE Constipation, % (5 mg BID (N = 9)): (0.0) %
TEAE Decreased appetite, % (5 mg BID (N = 9)): (0.0) %
TEAE Diarrhoea, % (5 mg BID (N = 9)): (0.0) %
TEAE Dyspepsia, % (5 mg BID (N = 9)): (0.0) %
TEAE Ear and labyrinth disorders, % (5 mg BID (N = 9)): (0.0) %
TEAE Electrocardiogram QT prolonged, % (5 mg BID (N = 9)): (0.0) %
TEAE Gastrointestinal disorders, % (5 mg BID (N = 9)): (11.1) %
TEAE Headache, % (5 mg BID (N = 9)): (0.0) %
TEAE Hypoglycaemia, % (5 mg BID (N = 9)): (0.0) %
TEAE Infections and infestations, % (5 mg BID (N = 9)): (0.0) %
TEAE Investigations, % (5 mg BID (N = 9)): (0.0) %
TEAE Metabolism and nutrition disorders, % (5 mg BID (N = 9)): (0.0) %
TEAE Musculoskeletal and connective tissue disorders, % (5 mg BID (N = 9)): (0.0) %
TEAE Nausea, % (5 mg BID (N = 9)): (0.0) %
TEAE Nervous system disorders, % (5 mg BID (N = 9)): (0.0) %
TEAE Palpitations, % (5 mg BID (N = 9)): (0.0) %
TEAE Sinusitis, % (5 mg BID (N = 9)): (0.0) %
TEAE Tinnitus, % (5 mg BID (N = 9)): (0.0) %
TEAE Vomiting, % (5 mg BID (N = 9)): (0.0) %
Any Aes, % of subjects [1]: (11.1) %
Any Aes, n subjects [1]: 1
Any TEAEs by maximum severity: Mild, % of subjects [1]: (11.1) %
Any TEAEs by maximum severity: Mild, n subjects [1]: 1
Any TEAEs by maximum severity: Moderate, % of subjects [1]: (0.0) %
Any TEAEs by maximum severity: Moderate, n subjects [1]: 0
Any TEAEs by maximum severity: Severe, % of subjects [1]: (0.0) %
Any TEAEs by maximum severity: Severe, n subjects [1]: 0
Any TEAEs leading to death, % of subjects [1]: (0.0) %
Any TEAEs leading to death, n subjects [1]: 0
Any TEAEs leading to discontinuation, % of subjects [1]: (0.0) %
Any TEAEs leading to discontinuation, n subjects [1]: 0
Any TEAEs, % of subjects [1]: 11.1%
Any TEAEs, e (number of events) [1]: 1
Any TEAEs, n subjects [1]: 1
Any serious TEAEs, % of subjects [1]: (0.0) %
Any serious TEAEs, n subjects [1]: 0
Any study drug-related TEAEs by maximum severity: Mild, % of subjects [1]: (11.1) %
Any study drug-related TEAEs by maximum severity: Mild, n subjects [1]: 1
Any study drug-related TEAEs by maximum severity: Moderate, % of subjects [1]: (0.0) %
Any study drug-related TEAEs by maximum severity: Moderate, n subjects [1]: 0
Any study drug-related TEAEs by maximum severity: Severe, % of subjects [1]: (0.0) %
Any study drug-related TEAEs by maximum severity: Severe, n subjects [1]: 0
Any study drug-related TEAEs leading to discontinuation, % of subjects [1]: (0.0) %
Any study drug-related TEAEs leading to discontinuation, n subjects [1]: 0
Any study drug-related TEAEs, % of subjects [1]: (11.1) %
Any study drug-related TEAEs, n subjects [1]: 1
Any study drug-related serious TEAEs, % of subjects [1]: (0.0) %
Any study drug-related serious TEAEs, n subjects [1]: 0
subjects who experienced a TEAE (5 mg BID, Safety Population): 1 (11.1%) subjects (%)
TEAE diarrhoea (10 mg BID): 3 (10.0%) subjects (%)
TEAE electrocardiogram QT prolonged (10 mg BID): 1 (3.3%) subjects (%)
TEAE hypoglycaemia (10 mg BID): 1 (3.3%) subjects (%)
TEAEs reported (10 mg BID): 11 TEAEs
other TEAEs, each: nausea, vomiting, blood creatine phosphokinase increased, decreased appetite, palpitations, tinnitus (10 mg BID): 1 subject each
other study drug-related TEAEs, each: nausea, blood creatine phosphokinase increased, palpitations, tinnitus (10 mg BID): 1 subject each
study drug-related TEAE diarrhoea (10 mg BID): 2 (6.7%) subjects (%)
study drug-related TEAEs reported (10 mg BID): 6 TEAEs
subjects with study drug-related TEAEs (10 mg BID): 4 (13.3%) subjects (%)
Study drug-related TEAE Abdominal pain lower, % (10 mg BID (N = 30)): (0.0) %
Study drug-related TEAE Blood creatine phosphokinase increased, % (10 mg BID (N = 30)): (3.3) %
Study drug-related TEAE Cardiac disorders, % (10 mg BID (N = 30)): (3.3) %
Study drug-related TEAE Diarrhoea, % (10 mg BID (N = 30)): (6.7) %
Study drug-related TEAE Ear and labyrinth disorders, % (10 mg BID (N = 30)): (3.3) %
Study drug-related TEAE Electrocardiogram QT prolonged, % (10 mg BID (N = 30)): (0.0) %
Study drug-related TEAE Gastrointestinal disorders, % (10 mg BID (N = 30)): (10.0) %
Study drug-related TEAE Headache, % (10 mg BID (N = 30)): (0.0) %
Study drug-related TEAE Investigations, % (10 mg BID (N = 30)): (3.3) %
Study drug-related TEAE Nausea, % (10 mg BID (N = 30)): (3.3) %
Study drug-related TEAE Nervous system disorders, % (10 mg BID (N = 30)): (0.0) %
Study drug-related TEAE Palpitations, % (10 mg BID (N = 30)): (3.3) %
Study drug-related TEAE Tinnitus, % (10 mg BID (N = 30)): (3.3) %
Subjects with any TEAEs, % (10 mg BID (N = 30)): 20.0%
Subjects with any TEAEs, e (events) (10 mg BID (N = 30)): 11
Subjects with any study drug-related TEAE, % (10 mg BID (N = 30)): 13.3%
Subjects with any study drug-related TEAE, e (events) (10 mg BID (N = 30)): 6
TEAE Abdominal pain lower, % (10 mg BID (N = 30)): (0.0) %
TEAE Arthralgia, % (10 mg BID (N = 30)): (0.0) %
TEAE Back pain, % (10 mg BID (N = 30)): (0.0) %
TEAE Blood creatine phosphokinase increased, % (10 mg BID (N = 30)): (3.3) %
TEAE Cardiac disorders, % (10 mg BID (N = 30)): (3.3) %
TEAE Constipation, % (10 mg BID (N = 30)): (0.0) %
TEAE Decreased appetite, % (10 mg BID (N = 30)): (3.3) %
TEAE Diarrhoea, % (10 mg BID (N = 30)): (10.0) %
TEAE Dyspepsia, % (10 mg BID (N = 30)): (0.0) %
TEAE Ear and labyrinth disorders, % (10 mg BID (N = 30)): (3.3) %
TEAE Electrocardiogram QT prolonged, % (10 mg BID (N = 30)): (3.3) %
TEAE Gastrointestinal disorders, % (10 mg BID (N = 30)): (13.3) %
TEAE Headache, % (10 mg BID (N = 30)): (0.0) %
TEAE Hypoglycaemia, % (10 mg BID (N = 30)): (3.3) %
TEAE Infections and infestations, % (10 mg BID (N = 30)): (0.0) %
TEAE Investigations, % (10 mg BID (N = 30)): (6.7) %
TEAE Metabolism and nutrition disorders, % (10 mg BID (N = 30)): (6.7) %
TEAE Musculoskeletal and connective tissue disorders, % (10 mg BID (N = 30)): (0.0) %
